Assay results published in US20210113501A1, “METHOD OF ADMINISTERING BETA-HYDROXY-BETA-METHYLBUTYRATE (HMB)” (Metabolic Technologies, Inc., priority 2009, published 2021).

Columns and labels:
[1] = after HMB is fed; cited from earlier work
C2C12 myotubes = details: cited from earlier work
muscle damage = assay: Serum CPK after an acute eccentric exercise bout; assay type: in vivo, human; details: pre- and post exercise dosing (Treatment 5)
Procedure: (§1) Subjects: We conducted a study at the Iowa State University Health and Human Performance Laboratory; this study was approved by the Iowa State University Institutional Review Board, and was registered at ClinicalTrials.gov (NCT01150526). We recruited 12 men and 13 women between the ages of 20 and 36 from the Iowa State University community and surrounding area.
(§2) Treatments: The experimental design is depicted in FIG. 8.
Five treatments were administered as follows: Treatment 1: Placebo. This group received a placebo capsule and a placebo syringe dosage at each dosage administration. Treatment 2: CaHMB pre-exercise. […]
Serum and Urine Samples: A fasting blood sample was taken from a superficial forearm vein each morning when the subjects reported to the laboratory for testing. […] Serum CPK was analyzed by a commercial laboratory (Quest Diagnostics, Madison N.J.). Urine 3-Methylhistidine (3MH) was analyzed by a previously published GC/MS method (9). Urinary creatinine was analyzed by colorimetric assay (Cayman Chemical Company, Ann Arbor, Mich.). The urinary 3MH data was normalized to urinary creatinine and expressed as 3MH:creatinine ratio, μmol:mg.
(§3) Statistics: Data were analyzed using the mixed model procedure in Statistical Analysis System for Windows (Release 9.1.3, SAS Institute, Cary, N.C.). […]

[2] = tested on: protein degradation in muscle; assay: Urinary 3-methylhistidine to creatinine ratio after an acute exercise bout; assay type: in vivo, human
Procedure: as §1, §2
Five treatments were administered as follows: Treatment 1: Placebo. This group received a placebo capsule and a placebo syringe dosage at each dosage administration. Treatment 2: CaHMB pre-exercise. This group received a CaHMB capsule and a placebo syringe dosage 30 min prior to the acute exercise bout. The remaining additional dosages during the study consisted of one placebo capsule and one placebo syringe dosage. Treatment 3: HMB-acid gel pre-exercise. This group received a placebo capsule and a syringe dosage of HMB-acid gel 30 min prior to the acute exercise bout. The remaining additional dosages during the study consisted of one placebo capsule and one placebo syringe dosage. Treatment 4: CaHMB pre- and post-exercise. This group received a CaHMB capsule and a placebo syringe dosage at all administration times during the study. Treatment 5: HMB-acid gel pre- and post-exercise. This group received a syringe dosage of HMB-acid gel and one placebo capsule at all administration times during the study.
To blind the treatments to both the researchers and subjects, each subject took a capsule and syringe dosage of supplement at each administration. The capsules contained either one gram of calcium lactate (Placebo) or one gram of calcium β-hydroxy-β-methylbutryate (CaHMB). The syringe dosages were formulated to be similar in taste and appearance and contained either 0.8 g of corn syrup (Placebo) or 0.8 g of β-hydroxy-β-methylbutryate free acid, the same amount of HMB as in the capsule dosage. The 3 daily doses provided the same total HMB dosage (2.4 g as calcium HMB in the capsules or 2.4 g as HMB free acid in the syringes).
Eccentric Exercise Bout: Subjects refrained from vigorous exercise for three days before reporting to the laboratory. All subjects were studied after an overnight fast. […] Subjects then consumed their assigned supplement and 30 minutes later the eccentric exercise session was performed. The exercise consisted of 50 maximal effort contractions of knee extensors while attempting to resist the Biodex lever arm as it moves the knee joint from full extension to 90 degrees flexion; this is similar to letting a heavy weight down slowly while in a seated position. Each contraction lasted about 2 seconds and 12 seconds were allowed between contractions. This protocol was performed on the right leg followed by the left leg. The subjects received 2 more daily dosages of treatment (placebo or HMB) with instructions to take the dosages at lunch and dinner. For the next 4 days the subjects returned to the laboratory fasted each morning, had blood taken and urine collected and then consumed the morning dosage of their supplement. The subjects were again given the 2 remaining daily supplement dosages with instructions to take them at lunch and dinner.
Serum and Urine Samples: A fasting blood sample was taken from a superficial forearm vein each morning when the subjects reported to the laboratory for testing. Additionally a clean catch urine sample was collected at this time. Serum CPK was analyzed by a commercial laboratory (Quest Diagnostics, Madison N.J.). Urine 3-Methylhistidine (3MH) was analyzed by a previously published GC/MS method (9). Urinary creatinine was analyzed by colorimetric assay (Cayman Chemical Company, Ann Arbor, Mich.). The urinary 3MH data was normalized to urinary creatinine and expressed as 3MH:creatinine ratio, μmol:mg.
as §3

[3] = Study 2: plasma HMB and urinary HMB excretion over 24 h; assay type: in vivo, human
Description: Human subjects. In study 1, four male and four female college-aged subjects were studied. In study 2, an additional four male and four female college-aged subjects were studied. The protocols for both studies were approved by the Iowa State University IRB and each subject gave informed consent to participate in the study. Due to the nature of the treatments, neither the subjects nor the researchers could be blinded.
Treatments. The same treatments were given to the subjects in both study groups. The three treatments were given in random order to each subject with at least a one week washout period between treatments. The treatments were supplied by Metabolic Technologies, Inc. (MTI, Ames, Iowa) and were prepared with food grade ingredients. One gram of CaHMB or the equivalent HMB in free acid in a gel form was administered to the subjects. The CaHMB capsules were obtained from a commercial supplement manufacturer (Optimum Nutrition, Aurora, Ill.) while the HMB-acid gel was prepared at MTI laboratories. Briefly, the HMB-acid was adjusted to a pH 4.5 with potassium carbonate (K2CO3) and flavors and sweeteners were then added. The 1.0 g CaHMB capsule was taken with 355 mL of water (approx. 12 oz.). The free acid gel dosage was 0.80 g and was equivalent to the free acid contained in the CaHMB in the capsule. The free acid gel treatments were either swallowed (FASW) or held sublingual for 15 seconds and then swallowed (FASL). FASW consisted of expelling the entire dose into the mouth in a 3 ml syringe, swallowing, and then following this with 355 mL of water. FASL subjects were instructed to place the entire dosage under the tongue and hold the dosage for 15 sec before swallowing. They then rinsed and followed the dose with 355 mL of water.
Study 2 design. Study 2 was conducted similar to study 1 with the following modifications. In study 2, plasma levels of HMB were measured for 1440 min (24 h) and total urine collection was also performed for measurement of urinary HMB excretion during this period. After the 180 min blood sample, the subjects were allowed to leave the laboratory and were instructed to return to the laboratory for additional blood samples at 360, 720, and 1440 min after the ingestion of the supplement. As in study 1, each subject took each of the treatments with at least a one week washout period between treatments. Samples were again stored frozen at −70° C. for analysis of plasma and urinary HMB concentrations. Pre-ingestion, 180 min and 1440 min blood samples were again assayed for the same measurements already for study 1. Subjects were provided with a standardized lunch after the 180 min blood sampling and instructed to eat this at approximately 240 min post ingestion. Following the 720 min blood sample, subjects were instructed to eat a normal evening meal before 10 pm. Subjects reported back to the laboratory the following morning for the fasted 1440 min blood sample. A urine collection container was provided and subjects collected all urine produced during the experimental 24 h experimental period. The urine was stored refrigerated when not being collected. Urine volumes were measured and samples of the total urine collection were taken and stored frozen at −70° C. until analyzed for HMB.
HMB analysis. Plasma and urine HMB were analyzed by gas chromatography/mass spectrometry (GC/MS) as previously described.(27)
Calculations and statistics. Areas under the curves were calculated for each subject using the trapezoidal method that sums the area above baseline.(51) Half-life of plasma HMB was calculated for study 2. The following equations were used:
k=(ln(Cpeak)−ln(Ctrough))/Tinterval
Peak plasma concentrations for each subject were used for Cpeak. […] Tpeak was the time at which Cpeak was measured and Tinterval is the time from Tpeak until the time at Ctrough (720 min). The extracellular fluid compartment was assumed to be 20% of body weight and calculated using equation 3 below(1). […]

Compound: CC(C)(O)CC(=O)O [HMB, β-Hydroxy-β-methylbutyrate]
- loss of HMB to urine [1]: 20-50%
- phosphorylation of 4EBP1Thr65/70 (C2C12 myotubes): +51%
- phosphorylation of AKTSer473 (C2C12 myotubes): +129%
- phosphorylation of S6K1Thr389 (C2C12 myotubes): +50%
- AKT phosphorylation (C2C12 myotubes; incubation with rapamycin): +188%

Compound: CC(C)(O)CC(=O)O [HMB-acid gel, β-hydroxy-β-methylbutryate free acid]
- blunting of the exercise-induced increase in serum CPK (muscle damage; 24 h post exercise, P<0.03): up to 64%
- blunting of the exercise-induced increase in serum CPK (muscle damage; 48 h post exercise, P<0.005): 86%
- 3MH:Cr ([2]; Baseline, dosed pre- and post exercise (Treatments 4, 5)): 0.225 ± 0.034 µmol/mg
- 3MH:Cr ([2]; Baseline, dosed pre-exercise only (Treatments 2, 3)): 0.173 ± 0.028 µmol/mg
- 3MH:Cr ([2]; at 24 h, dosed pre- and post exercise (Treatments 4, 5)): 0.213 ± 0.025 µmol/mg
- 3MH:Cr ([2]; at 24 h, dosed pre-exercise only (Treatments 2, 3)): 0.213 ± 0.037 µmol/mg
- 3MH:Cr ([2]; at 48 h, dosed pre- and post exercise (Treatments 4, 5)): 0.208 ± 0.012 µmol/mg
- 3MH:Cr ([2]; at 48 h, dosed pre-exercise only (Treatments 2, 3)): 0.190 ± 0.014 µmol/mg
- 3MH:Cr ([2]; at 72 h, dosed pre- and post exercise (Treatments 4, 5)): 0.175 ± 0.013 µmol/mg
- 3MH:Cr ([2]; at 72 h, dosed pre-exercise only (Treatments 2, 3)): 0.172 ± 0.013 µmol/mg
- 3MH:Cr ([2]; at 96 h, dosed pre- and post exercise (Treatments 4, 5)): 0.186 ± 0.043 µmol/mg
- 3MH:Cr ([2]; at 96 h, dosed pre-exercise only (Treatments 2, 3)): 0.202 ± 0.020 µmol/mg
- protein degradation (3MH:Cr ratio), trend ([2]; pre- and post exercise dosing): no increase and even a decrease in protein degradation
- increase in HMB plasma clearance compared with CaHMB ([3]; Study 2): 25%
- AUC greater than for CaHMB capsules ([3]; Study 2, over 24 hours, listed as free acid gel): +14.8%
- estimated amount of HMB retained greater than CaHMB ([3]; based upon plasma clearance): 25%
- peak plasma level earlier than with CaHMB ([3]; free acid versus CaHMB): ~90 min
- plasma level relative to oral CaHMB ([3]; peak levels): ~2 fold

Compound: CC(C)C[C@H](N)C(=O)O [leucine]
- phosphorylation of S6K1Thr389 (C2C12 myotubes): +17%
